Paper PMC9317902, “Multi-Targeting Approach in Glioblastoma Using Computer-Assisted Drug Discovery Tools to Overcome the Blood–Brain Barrier and Target EGFR/PI3Kp110β Signaling” (Cancers, 2022)
Where two headings read alike, the source gives them in different places. One block for each compound: values may come before it.

Experiments:
[1] = several cell-based studies; cited from earlier work
U87 cells = tested on: U87 cells; design: method as in PMID 34794398; conditions: depending on the incubation time; cited from earlier work
[2] = tested on: patient-derived cell lines; design: method as in PMID 34794398; conditions: 72 h, read-out: median IC50; cited from earlier work
U87MG-wtEGFR cells = test: MTT cell viability, U87MG-wtEGFR; assay type: cell-based; conditions: 24 h; for cell death: screening 0.1-100 µM
Protocol: To analyze molecules’ cytotoxicity, U87MG and U87MG-wtEGFR cells were seeded into 96-well plates at a density of 2.5 × 10^4 cells/mL, and after 48 h were incubated with 0.1, 1, 10, or 100 µM of each molecule diluted in (non-supplemented) cell medium for 24 h. […] Dose–response data were also obtained for treatment with triton X-100 (positive control) and DMSO (vehicle; negative control). The cytotoxicity of selected molecules from initial screening was tested in HBMEC at 100 µM for 24 h. HBMEC were seeded at a density of 8 × 10^4 cell/mL in 96-well plates and after 48 h were incubated with the molecules.
(§1) In screening assays, cell viability was evaluated using thiazolyl blue tetrazolium bromide (MTT). Briefly, a culture medium containing 0.5 mg/mL of MTT was added to each well for 90 min at 37 °C. The supernatant was removed and the formed formazan crystals in viable cells were solubilized with 0.04 N HCl in isopropanol solution.

phospho-AKT = test: Immunofluorescence of phospho-AKT in U87MG cells; assay type: cell-based; conditions: for inhibition of phospho-AKT expression: at EC50, after 6 h exposure
HBMEC [3] = test: MTT cell viability, HBMEC; assay type: cell-based, human; conditions: 24 h, 100 µM
Protocol: (§2) To analyze molecules’ cytotoxicity, U87MG and U87MG-wtEGFR cells were seeded into 96-well plates at a density of 2.5 × 10^4 cells/mL, and after 48 h were incubated with 0.1, 1, 10, or 100 µM of each molecule diluted in (non-supplemented) cell medium for 24 h. The half-maximal effective concentration (EC50) of the most cytotoxic compounds was quantified. Dose–response data were also obtained for treatment with triton X-100 (positive control) and DMSO (vehicle; negative control). The cytotoxicity of selected molecules from initial screening was tested in HBMEC at 100 µM for 24 h. HBMEC were seeded at a density of 8 × 10^4 cell/mL in 96-well plates and after 48 h were incubated with the molecules.
as §1, with “solution. The absorbance was recorded using a microplate reader (Zenyth 3100, Anthos Labtec Instruments, Salzburg, Austria) at 595 nm, and values of cell viability were calculated as percentage of negative control.” for “solution.”

phospho-EGFR = test: Immunofluorescence of phospho-EGFR in U87MG cells; assay type: cell-based
U87MG cells [4] = test: Apoptotic cells by nuclear morphology (Hoechst) in U87MG; assay type: cell-based; conditions: for apoptotic cells: at EC50, 9 h
U87MG cells [5] = test: MTT cell viability, U87MG; assay type: cell-based; conditions: 24 h; for EC50 / cell death: U87MG; for cell death: screening 0.1-100 µM
Protocol: as §2
as §1, with “solution. The absorbance was recorded using a microplate reader (Zenyth 3100, Anthos Labtec Instruments, Salzburg, Austria) at 595 nm, and values of cell viability were calculated as percentage of negative control.” for “solution.”

HBMEC [6] = test: HBMEC integrity and morphology (β-catenin, F-actin immunofluorescence); assay type: cell-based, human
Source text: (§3) HBMEC in coverslips were stained for: the junctional protein β-catenin (1:100, Thermo Fisher Scientific, Waltham, MA, USA, #71-2700), the cytoskeleton protein F-actin (1:1000, Phalloidin dye, Abcam, Cambridge, UK, #ab17675), and the efflux transporter P-gp (1:50, Santa Cruz Biotechnology, Dallas, TX, USA, #sc-390883). HBMEC seeded on polyester inserts for transport assays were also stained for the junctional protein zonula occludens-1 (ZO-1, 1:200, Thermo Fisher Scientific, Waltham, MA, USA, #40-2200) and the cytoskeleton protein vimentin (1:100, Thermo Fisher Scientific, Waltham, MA, USA, #MA3745).
(§4) Incubations with primary antibodies occurred overnight at 4 °C. Incubation with the secondary antibodies Alexa Fluor 555 (1:500, Thermo Fisher Scientific, Waltham, MA, USA, #A21428) or Alexa Fluor 488 (1:500, Thermo Fisher Scientific, Waltham, MA, USA, #A11001) lasted for 1 h at room temperature. Nuclei were counterstained with Hoechst 33342 dye (1:1000, Thermo Fisher Scientific, Waltham, MA, USA, #33342) for 10 min. Before mounting with DPX (Merck Millipore, Burlington, MA, USA), cells were dehydrated with methanol. Negative controls were performed.
(§5) All acquired images were treated in ImageJ (NIH, Bethesda, MD, USA). Assessment of nuclear morphology following Hoechst staining was evaluated. For fluorescence intensity measures, the regions of interest were selected in Image J, and corresponding integrated densities were obtained. The representative 3D plots for BBB integrity were obtained by merged pixel intensity using the surface plot tool of Image J. For F-actin stress fibers analysis, the plot profile tool of Image J was used considering each defined cell-ferret diameter.
For analysis of β-catenin internalization and HBMEC morphological changes, Icy software was used. At least 5 cells per field were delineated and the conveyed values of membrane/interior pixels and roundness (area/perimeter^2) were exported and analyzed. Taking advantage of membrane staining (β-catenin), the BBB’s integrity was also analyzed by quantifying the total area of intercellular gaps in the HBMEC monolayer.

P-gp = P-gp expression in HBMEC (immunofluorescence); assay type: cell-based, human; conditions: U87MG EC50, 9 h
Source text: as §3, §4, §5

U87MG cells [7] = test: BBB-GB co-culture model HBMEC:U87MG; assay type: cell-based
Protocol: To assess molecule cytotoxicity in GB cells after crossing the HBMEC monolayer, a co-culture BBB-GB model was used. HBMEC were seeded in the Transwell apparatus as described above. After 5 days, U87MG or U87MG-wtEGFR cells were seeded (1.2 × 10^5 cell/mL) in the lower chamber. After 3 days of co-culture, upper chamber content was replaced with fresh medium (control) or medium containing each molecule at respective EC50. After 2 h, inserts were removed and tested for barrier integrity by TEER readings and immunofluorescence analysis, whereas GB cells were maintained in culture for 24 h to further assess cell viability by MTT assay.

HBMEC monolayer = test: Transwell in vitro BBB model: transport (UPLC-MS/MS) and barrier integrity; assay type: in vitro ADME, human
Protocol: To evaluate molecules’ BBB transport, a well-validated two-chamber BBB model, relying on the use of a microporous semipermeable membrane (Transwell insert) that separates the upper (luminal: “blood side”) and the lower (abluminal: “brain side”) chambers, was used as usual in our team. Briefly, HBMEC were seeded on polyester inserts (0.4 μm, Corning Costar Corp., New York, NY, USA) at a density of 8 × 10^4 cell/insert and treated after 8 days in culture. Inserts were coated with rat-tail collagen-I (BD Biosciences, Erembodegem, Aalst, Belgium) before seeding. Transport assays were conducted in Hank’s Balanced Salt Solution (HBSS, Gibco, Waltham, MA, USA) with calcium and magnesium, supplemented with 0.1% FBS.
Samples from upper and lower chambers were deproteinized using acetonitrile (ACN) (1:3) in ice-cold conditions, centrifuged at 15,300× g for 5 min at 4 °C and the respective supernatants were frozen until subsequent analysis.
The identification and quantification of molecules of interest were achieved by ultra-performance liquid chromatography–tandem mass spectrometry (UPLC-MS/MS) analysis using a triple quadrupole and Masslynx 4.1 software (Acquity TQ Waters). The separation of analytes was performed using a reversed-phase column Purospher STAR, RP-18 endcapped, 2 µm; Hibar HR 50-2.1 (Merck, Rahway, NJ, USA) at 35 °C, and a linear gradient (0.1% formic acid (A): ACN with 0.1% formic acid (B)) at a flow rate of 0.30 mL/min. The detection of analytes was based on electrospray ionization in the positive mode (ESI+) and acquisition in multiple reaction monitoring mode (MRM) at the following settings: ESI capillary voltage 3.0 kV, cone voltage 30 V, extractor voltage 1 V, RF lens voltage 0.1 V, desolvation gas flow 750 L/h at 350 °C, cone gas flow 50 L/h at 120 °C. Calibration curves were based on external standards using at least 8-points within the intended range, injected as duplicates. Analytes were quantified with a maximum deviation of 15% between the MRM1/MRM2 ratio. Each sample was injected in triplicate. Endothelial transport was calculated based on the ratio of lower compartment concentration and the sum of upper and lower compartments concentrations.
HBMEC monolayer integrity was ensured during BBB transport assays by TEER measurements and sodium-fluorescein paracellular permeability assessment, as previously described. TEER readings were performed using an EndOhm^TM chamber coupled to an EVOMX resistance meter (World Precision Instruments, Inc., Sarasota, FL, USA) and sodium fluorescein levels were measured using a Hitachi F-2000 fluorescence spectrophotometer.

U87MG cells [8] = test: Abluminal conditioned medium of HBMEC on U87MG; assay type: cell-based; conditions: 24 h, MTT
Protocol: To evaluate disruptive effects in HBMEC monolayer when co-cultured, a transport assay using HBMEC monoculture was conducted. After 2 h of molecules incubation, the abluminal conditioned media were collected and used to supply U87MG or U87MG-wtEGFR cells for 24 h, which grew to confluence for 3 days. HBMEC were also tested for barrier integrity, and MTT assays were performed at the end of incubation.

[9] = U87MG-wtEGFR, MTT, read-out: EC50

Structure (SMILES): Cn1nnc2c(C(N)=O)ncn2c1=O [TMZ, temozolomide]
doses at which more than 50% cytotoxicity was seen [1]: up to 4000 µM
IC50 (U87 cells): 124 to 230 µM
IC50 [2]: 800 µM

Structure (SMILES): C=CC(=O)Nc1cc2c(Nc3ccc(F)c(Cl)c3)ncnc2cc1OCCCN1CCOCC1 [Mol 25, canertinib, reference compound]
EC50 (U87MG-wtEGFR cells): 11.3 ± 2.15 µM
cell death (U87MG-wtEGFR cells; U87MG-wtEGFR, MTT): ≥ 50%
inhibition of phospho-AKT expression (phospho-AKT): > 50%
impairment of HBMEC cell viability (HBMEC [3]; human): ~100%
reduction of mean intensity of phosphorylated EGFR (phospho-EGFR; at EC50, 9 h): 92.6%
inhibition of phospho-EGFR expression (phospho-EGFR; at EC50, after 6 h exposure): > 50%
apoptotic cells (U87MG cells [4]): ~85%
viability at 100 µM (U87MG cells [5]; Homo sapiens, U-87 MG, 100 µM, GB cell line not given, read-out: viable cells): ~0%
EC50 (U87MG cells [5]; Homo sapiens, U-87 MG): 16.3 ± 2.26 µM
cell death (U87MG cells [5]): ≥ 50%
HBMEC detachment (HBMEC [6]; human, 9 h): 100%

Structure (SMILES): C=CC(=O)Nc1ccc2ncnc(Nc3cccc(Br)c3)c2c1 [Mol 27]
P-gp expression (mean intensity) in HBMEC (P-gp): significant increase in P-gp mean intensity
inhibition of phospho-AKT expression (phospho-AKT): > 50%
impairment of HBMEC cell viability (HBMEC [3]; MTT): ~58%
apoptotic cell death (U87MG cells [4]; at EC50, 6 h): 12.8%
apoptotic cells (U87MG cells [4]): 31.9%
EC50 (U87MG cells [5]; Homo sapiens, U-87 MG): 22.7 ± 2.22 µM
cell death (U87MG cells [5]): ≥ 50%
F-actin stress fibers per cell (HBMEC [6]; HBMEC, U87MG EC50, 9 h): highly increased the number of stress fibers/cell
HBMEC shape (roundness) (HBMEC [6]; HBMEC, U87MG EC50, 9 h): increased cell roundness
β-catenin expression and location (HBMEC [6]; HBMEC, U87MG EC50, 9 h): irregular and discontinuous appearance
disrupted barrier integrity (endothelial gaps), of control (HBMEC [6]; HBMEC, U87MG EC50, 9 h, β-catenin staining): 82%

EC50 (U87MG-wtEGFR cells; [9]): 50.4 ± 5.21 µM
EC50 (U87MG cells [5]; Homo sapiens, U-87 MG): 129 ± 14.5 µM
HBMEC shape (roundness) (HBMEC [6]; human, 9 h): increased cell roundness
disrupted barrier integrity (endothelial gaps), of control (HBMEC [6]; human, 9 h): 78%
β-catenin expression and location (HBMEC [6]; human, 9 h): irregular and discontinuous appearance
Structure (SMILES): Brc1ccc(Nc2ncnc3ccccc23)cc1 [Mol 17]
P-gp expression (mean intensity) in HBMEC (P-gp): significant increase in P-gp mean intensity
cell death (U87MG-wtEGFR cells; U87MG-wtEGFR, MTT): ≥ 50%
impairment of HBMEC cell viability (HBMEC [3]; human): about 65%
phospho-EGFR expression, of that observed in control (phospho-EGFR; at EC50, 9 h): about 30%
apoptotic cells (U87MG cells [4]): ~40%
cell death (U87MG cells [5]): ≥ 50%
F-actin stress fibers per cell (HBMEC [6]; human, 9 h): highly increased the number of stress fibers/cell

EC50 (U87MG-wtEGFR cells; [9]): 27.6 ± 5.91 µM
TEER of HBMEC (U87MG cells [7]; 2 h at EC50, mono- or co-culture system): TEER readings were not decreased
EC50 (U87MG cells [5]; Homo sapiens, U-87 MG): 104 ± 14.9 µM
HBMEC shape (roundness) (HBMEC [6]): no significant changes in HBMEC shape
Structure (SMILES): CCCCN1CCCc2cc(CN(CCN3CCOCC3)C(=S)Nc3cc(F)cc(F)c3)ccc21 [Mol 19]
P-gp expression (mean intensity) in HBMEC (P-gp): No significant changes in P-gp expression
cell death (U87MG-wtEGFR cells; U87MG-wtEGFR, MTT): ≥ 50%
phosphorylated AKT expression compared with control (phospho-AKT; at EC50, 1-9 h): decreased expression
U87MG cell viability in co-culture system (U87MG cells [7]; added to upper chamber at EC50 for 2 h, MTT after 24 h): impaired
HBMEC permeability to sodium fluorescein (Pe) (HBMEC monolayer; U87MG EC50): no statistical differences between treated cells and control
TEER of HBMEC monolayer (HBMEC monolayer; U87MG EC50, 30 min): None of the molecules markedly changed the TEER
endothelial transport efficiency, 30 vs. 120 min (HBMEC monolayer; UPLC-MS/MS): transported across the HBMEC monolayer in a time-dependent manner
transport across the BBB endothelium (HBMEC monolayer; UPLC-MS/MS, 30 and 120 min): could be transported across the BBB endothelium
apoptotic cells (U87MG cells [4]): about 35%
cell death (U87MG cells [5]): ≥ 50%
β-catenin expression and location (HBMEC [6]): absence of changes in β-catenin expression and location
U87MG cell viability with basolateral conditioned medium of HBMEC (U87MG cells [8]): none of the molecules induced a statistically significant difference
